Earlier results as cited in paper PMC8557155 (Annals of Nuclear Medicine, 2021).

Details: rat model, lysine-protected rats; cited from earlier work

## NCCCC[C@H](N)C(=O)O [lysine]
  Reduction of 177Lu quantified in the kidney: approximately 45%
